Test results from patent publication US20090081174A1 (priority 2005, published 2009).
Where two headings read alike, the source gives them in different places.

Experiments:
[1] = test system: Phytophthora infestans; format: in vivo; conditions: potato plants, scale 100 to 0
[2] = test system: Plasmopara viticola; assay: 7-day preventive activity on Plasmopara viticola, leaf application on vines; format: in vivo
Method: Leaves of cultivar Merlot vines, grown in vases, in a conditioned environment (20±1° C., 70% relative humidity) are treated by spraying both sides of the leaves with the mixtures under examination dispersed in an aqueous solution containing a 0.3% of tween 20.
After remaining 7 days in a conditioned environment, the plants are infected on the lower side with an aqueous suspension of spores of Plasmopara viticola (200,000 spores per cm^3).
The plants are kept in a humidity saturated environment, at 21° C., for the incubation period of the fungus and, at the end of this period (7 days), the fungicidal activity is evaluated according to an evaluation percentage scale from 100 (healthy plant) to 0 (completely infected plant).
From the data indicated in tables 1-2, it is possible to verify the synergistic effect of the mixtures, consisting of the mixtures being examined, compared with the expected efficacy using the Limpel formula (“Pesticide Science” (1987), vol. 19, pages 309-315): […]
wherein: • E is the fungicidal activity expected, in the absence of synergistic effects, from a mixture obtained by mixing g·x of compound X with g·y of compound Y; • x is the activity of compound X when used alone with a dosage of g·x; • y is the activity of compound Y when used alone with a dosage of g·y. […]

Compound	Activity (y) ([1]; Table 4: listed phosphite salt(s) alone at 750 ppm equivalent phosphorous acid)	Activity (y) ([1]; Table 5: listed phosphite salt(s) alone at 750 ppm equivalent phosphorous acid)	Activity (y) ([2]; listed phosphite salt(s) alone at 250 ppm equivalent phosphorous acid, scale 100 to 0)	Activity (y) ([1]; listed salt alone at 750 ppm equivalent phosphorous acid)	Activity (y) ([2]; listed salt alone at 500 ppm equivalent phosphorous acid, scale 100 (healthy) to 0 (completely infected))
O=[PH]([O-])[O-].[Cu+2] [CuHPO3, copper (II) salt of phosphorous acid]	12	12	35	–	–
K2HPO3 [Mixture K2HPO3]	–	–	–	5	45
